Reference: the kinase profiling compilation of Christmann-Franck et al. (2016)
Where “and” joins values, the source holds several entries; their conditions need not be identical. Equal entries are not always repeated.

Legend:
Assay in all cases: KINOMEscan competition binding
Conditions in all cases: compound 10.0 µM
[1] = target: PLK4 (human) (UniProt O00444)
[2] = target: MAP4K3 (human) (UniProt Q8IVH8)
[3] = target: DDR2 (human) (UniProt Q16832)
[4] = target: BLK (human) (UniProt P51451)
[5] = target: CDKL2 (human) (UniProt Q92772)
[6] = target: AAK1 (human) (UniProt Q2M2I8)
[7] = target: ACVR2A (human) (UniProt P27037)
[8] = target: ERBB3 (human) (UniProt P21860)
[9] = target: TLK2 (human) (UniProt Q86UE8)
[10] = target: ULK2 (human) (UniProt Q8IYT8)
[11] = system: ABL1 (human), P00519 [H396P]
[12] = target: PRKCE (human) (UniProt Q02156)
[13] = target: ICK (human) (UniProt Q9UPZ9)
[14] = target: NIM1 (human) (UniProt Q8IY84)
[15] = system: EGFR (human), P00533 [747-751 del / S ins]
[16] = system: EGFR (human), P00533 [L858R]
[17] = target: CHEK2 (human) (UniProt O96017)
[18] = system: EGFR (human), P00533 [L861Q]
[19] = system: EGFR (human), P00533 [752-759 del]
[20] = system: EGFR (human), P00533 [G719S]
[21] = system: EGFR (human), P00533 [A750P; 747-749 del]
[22] = target: TAOK1 (human) (UniProt Q7L7X3)
[23] = system: EGFR (human), P00533 [G719C]
[24] = target: EGFR (human) (UniProt P00533)
[25] = system: EGFR (human), P00533 [T790M/L858R]
[26] = system: EGFR (human), P00533 [746-750 del]
[27] = system: EGFR (human), P00533 [P753S; 747-752 del]
[28] = target: RPS6KA3 KD1 (human) (UniProt P51812)

ULK2 (human), sequence (Q8IYT8 whole entry, looked up): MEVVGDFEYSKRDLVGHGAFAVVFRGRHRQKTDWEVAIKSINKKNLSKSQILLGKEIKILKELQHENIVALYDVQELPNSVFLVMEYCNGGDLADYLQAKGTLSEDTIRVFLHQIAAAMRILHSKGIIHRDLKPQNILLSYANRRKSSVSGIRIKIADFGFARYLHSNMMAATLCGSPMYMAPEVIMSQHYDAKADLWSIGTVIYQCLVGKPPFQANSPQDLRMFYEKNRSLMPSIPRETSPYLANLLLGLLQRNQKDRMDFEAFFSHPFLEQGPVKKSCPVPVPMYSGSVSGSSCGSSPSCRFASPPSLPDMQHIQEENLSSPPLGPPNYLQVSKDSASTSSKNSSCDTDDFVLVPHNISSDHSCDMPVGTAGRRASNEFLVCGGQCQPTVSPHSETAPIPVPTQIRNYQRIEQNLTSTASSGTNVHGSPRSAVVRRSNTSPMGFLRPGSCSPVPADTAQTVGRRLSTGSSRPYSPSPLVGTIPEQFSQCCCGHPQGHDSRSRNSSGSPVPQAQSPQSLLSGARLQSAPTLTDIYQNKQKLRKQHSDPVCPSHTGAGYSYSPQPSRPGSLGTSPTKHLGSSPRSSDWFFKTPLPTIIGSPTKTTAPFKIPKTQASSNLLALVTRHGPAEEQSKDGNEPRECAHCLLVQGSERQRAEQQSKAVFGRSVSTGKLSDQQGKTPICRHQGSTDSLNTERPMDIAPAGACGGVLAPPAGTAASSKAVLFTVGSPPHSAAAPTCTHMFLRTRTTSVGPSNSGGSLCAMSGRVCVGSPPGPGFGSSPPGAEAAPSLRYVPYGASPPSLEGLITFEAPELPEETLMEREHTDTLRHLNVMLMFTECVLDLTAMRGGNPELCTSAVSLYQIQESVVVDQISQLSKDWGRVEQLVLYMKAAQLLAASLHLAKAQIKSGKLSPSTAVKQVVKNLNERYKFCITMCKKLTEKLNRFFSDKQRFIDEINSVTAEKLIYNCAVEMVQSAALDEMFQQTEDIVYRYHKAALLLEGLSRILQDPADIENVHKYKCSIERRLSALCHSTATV
CDKL2 (human), sequence (Q92772 whole entry, looked up): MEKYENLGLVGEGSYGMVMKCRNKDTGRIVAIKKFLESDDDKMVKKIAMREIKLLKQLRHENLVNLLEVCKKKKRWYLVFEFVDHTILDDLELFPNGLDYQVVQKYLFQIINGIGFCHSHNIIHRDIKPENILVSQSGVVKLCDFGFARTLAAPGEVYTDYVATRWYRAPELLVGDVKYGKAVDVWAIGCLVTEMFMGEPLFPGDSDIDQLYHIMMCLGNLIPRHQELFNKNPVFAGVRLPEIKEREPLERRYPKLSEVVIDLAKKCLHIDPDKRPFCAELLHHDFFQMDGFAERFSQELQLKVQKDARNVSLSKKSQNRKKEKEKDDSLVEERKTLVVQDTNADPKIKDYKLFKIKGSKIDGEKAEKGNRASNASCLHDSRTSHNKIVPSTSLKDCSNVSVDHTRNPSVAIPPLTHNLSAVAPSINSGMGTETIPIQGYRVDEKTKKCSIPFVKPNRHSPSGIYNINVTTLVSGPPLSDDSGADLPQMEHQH
ACVR2A (human), sequence (P27037 whole entry, looked up): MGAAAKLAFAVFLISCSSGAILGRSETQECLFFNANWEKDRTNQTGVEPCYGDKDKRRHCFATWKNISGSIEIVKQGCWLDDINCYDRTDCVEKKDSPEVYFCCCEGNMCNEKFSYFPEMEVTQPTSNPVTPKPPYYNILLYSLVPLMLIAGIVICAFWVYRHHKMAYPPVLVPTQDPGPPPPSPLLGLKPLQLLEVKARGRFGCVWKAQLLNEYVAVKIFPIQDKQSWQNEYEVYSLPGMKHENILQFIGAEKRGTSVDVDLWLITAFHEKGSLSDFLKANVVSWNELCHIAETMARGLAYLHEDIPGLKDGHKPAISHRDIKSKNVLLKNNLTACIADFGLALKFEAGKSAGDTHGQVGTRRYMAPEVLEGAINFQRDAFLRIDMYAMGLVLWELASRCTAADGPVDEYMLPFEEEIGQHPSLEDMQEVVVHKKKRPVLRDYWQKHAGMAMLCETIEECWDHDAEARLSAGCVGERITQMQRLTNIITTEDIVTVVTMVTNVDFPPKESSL
PRKCE (human), sequence (Q02156 whole entry, looked up): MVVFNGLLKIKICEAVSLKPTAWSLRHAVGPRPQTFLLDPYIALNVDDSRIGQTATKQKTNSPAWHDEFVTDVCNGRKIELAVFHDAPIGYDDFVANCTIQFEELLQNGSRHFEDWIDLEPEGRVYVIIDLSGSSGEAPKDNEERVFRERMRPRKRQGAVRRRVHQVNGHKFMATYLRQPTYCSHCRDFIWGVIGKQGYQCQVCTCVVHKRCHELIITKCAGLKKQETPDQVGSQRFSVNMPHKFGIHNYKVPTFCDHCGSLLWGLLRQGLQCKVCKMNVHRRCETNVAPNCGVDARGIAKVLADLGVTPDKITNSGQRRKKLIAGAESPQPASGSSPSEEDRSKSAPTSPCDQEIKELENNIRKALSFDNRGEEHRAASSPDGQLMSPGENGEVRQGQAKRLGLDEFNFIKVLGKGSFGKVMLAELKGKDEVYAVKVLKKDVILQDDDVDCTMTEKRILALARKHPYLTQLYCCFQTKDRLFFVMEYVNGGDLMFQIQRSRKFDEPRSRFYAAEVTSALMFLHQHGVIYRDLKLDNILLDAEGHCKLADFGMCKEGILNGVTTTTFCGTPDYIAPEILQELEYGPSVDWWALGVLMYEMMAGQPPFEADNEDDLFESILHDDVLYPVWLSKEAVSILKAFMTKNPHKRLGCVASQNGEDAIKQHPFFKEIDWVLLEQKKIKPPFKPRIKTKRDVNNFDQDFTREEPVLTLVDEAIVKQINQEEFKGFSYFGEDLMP
TAOK1 (human), sequence (Q7L7X3 whole entry, looked up): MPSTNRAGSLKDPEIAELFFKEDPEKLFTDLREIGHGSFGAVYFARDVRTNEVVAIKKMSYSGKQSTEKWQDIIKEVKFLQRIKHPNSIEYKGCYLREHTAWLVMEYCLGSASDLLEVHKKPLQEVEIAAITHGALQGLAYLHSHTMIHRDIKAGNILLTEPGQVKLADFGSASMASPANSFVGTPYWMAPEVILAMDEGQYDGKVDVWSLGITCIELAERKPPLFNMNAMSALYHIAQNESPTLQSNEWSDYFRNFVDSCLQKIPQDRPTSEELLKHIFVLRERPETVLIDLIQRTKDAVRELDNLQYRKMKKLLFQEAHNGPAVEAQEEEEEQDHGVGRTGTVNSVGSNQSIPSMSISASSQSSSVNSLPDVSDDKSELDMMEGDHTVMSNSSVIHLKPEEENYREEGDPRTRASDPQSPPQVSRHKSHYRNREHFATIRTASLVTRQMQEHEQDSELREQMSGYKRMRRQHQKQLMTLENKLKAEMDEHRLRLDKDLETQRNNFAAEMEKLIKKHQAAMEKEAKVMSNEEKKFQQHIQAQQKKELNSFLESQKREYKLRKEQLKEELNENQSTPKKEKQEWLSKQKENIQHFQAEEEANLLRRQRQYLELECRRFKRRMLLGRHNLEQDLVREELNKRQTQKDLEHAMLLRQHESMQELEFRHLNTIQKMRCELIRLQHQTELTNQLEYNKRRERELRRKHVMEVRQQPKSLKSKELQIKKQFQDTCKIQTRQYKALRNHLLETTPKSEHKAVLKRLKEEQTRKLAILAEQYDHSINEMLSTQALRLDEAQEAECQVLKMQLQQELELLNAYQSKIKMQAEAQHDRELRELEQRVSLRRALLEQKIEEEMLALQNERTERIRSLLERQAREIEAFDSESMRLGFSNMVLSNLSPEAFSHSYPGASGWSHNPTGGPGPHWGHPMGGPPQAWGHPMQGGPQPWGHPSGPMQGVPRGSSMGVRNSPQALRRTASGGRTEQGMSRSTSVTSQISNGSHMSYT
ICK (human), sequence (Q9UPZ9 whole entry, looked up): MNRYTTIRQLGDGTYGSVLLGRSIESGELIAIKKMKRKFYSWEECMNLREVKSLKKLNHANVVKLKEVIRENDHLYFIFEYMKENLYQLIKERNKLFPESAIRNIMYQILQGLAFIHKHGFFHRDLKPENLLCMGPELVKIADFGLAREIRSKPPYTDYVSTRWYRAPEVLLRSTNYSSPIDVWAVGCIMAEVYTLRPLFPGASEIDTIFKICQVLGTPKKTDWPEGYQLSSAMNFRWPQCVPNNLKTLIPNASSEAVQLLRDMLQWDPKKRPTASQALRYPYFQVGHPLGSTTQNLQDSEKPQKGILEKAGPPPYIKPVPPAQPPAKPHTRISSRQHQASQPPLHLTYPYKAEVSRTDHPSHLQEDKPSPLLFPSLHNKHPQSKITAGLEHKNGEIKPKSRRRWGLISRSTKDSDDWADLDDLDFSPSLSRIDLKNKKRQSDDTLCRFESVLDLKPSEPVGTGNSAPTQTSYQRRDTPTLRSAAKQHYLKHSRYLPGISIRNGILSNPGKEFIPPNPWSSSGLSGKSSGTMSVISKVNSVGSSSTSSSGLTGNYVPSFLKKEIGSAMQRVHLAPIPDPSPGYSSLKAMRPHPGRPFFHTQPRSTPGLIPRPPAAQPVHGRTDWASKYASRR
BLK (human), sequence (P51451 whole entry, looked up): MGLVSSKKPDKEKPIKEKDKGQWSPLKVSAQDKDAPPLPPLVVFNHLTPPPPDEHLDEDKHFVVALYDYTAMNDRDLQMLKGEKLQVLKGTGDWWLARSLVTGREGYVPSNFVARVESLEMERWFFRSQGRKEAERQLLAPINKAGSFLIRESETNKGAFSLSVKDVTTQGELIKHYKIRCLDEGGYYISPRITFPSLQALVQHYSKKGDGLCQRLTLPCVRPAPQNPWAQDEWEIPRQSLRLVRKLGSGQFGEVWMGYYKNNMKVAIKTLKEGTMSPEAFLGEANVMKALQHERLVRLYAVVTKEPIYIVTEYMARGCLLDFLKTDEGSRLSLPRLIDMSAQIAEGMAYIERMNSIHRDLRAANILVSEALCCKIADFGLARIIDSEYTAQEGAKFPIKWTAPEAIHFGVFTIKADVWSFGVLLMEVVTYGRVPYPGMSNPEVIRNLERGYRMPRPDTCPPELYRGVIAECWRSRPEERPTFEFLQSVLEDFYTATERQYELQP

kinase still bound, per cent of control [1] [%]	kinase still bound, per cent of control [2] [%]	kinase still bound, per cent of control [3] [%]	kinase still bound, per cent of control [4] [%]	kinase still bound, per cent of control [5] [%]	kinase still bound, per cent of control [6] [%]	kinase still bound, per cent of control [7] [%]	kinase still bound, per cent of control [8] [%]	kinase still bound, per cent of control [9] [%]	kinase still bound, per cent of control [10] [%]	kinase still bound, per cent of control [11] [%]	kinase still bound, per cent of control [12] [%]	kinase still bound, per cent of control [13] [%]	kinase still bound, per cent of control [14] [%]	kinase still bound, per cent of control [15] [%]	kinase still bound, per cent of control [16] [%]	kinase still bound, per cent of control [17] [%]	kinase still bound, per cent of control [18] [%]	kinase still bound, per cent of control [19] [%]	kinase still bound, per cent of control [20] [%]	SMILES	other results
69	96	100	100	3.8	100	100	73	80	96	100	100	39	100							Cc1cnc(-c2cnc(NCCNc3ccc(C#N)cn3)nc2-c2ccc(Cl)cc2Cl)[nH]1	
14	70	84	100	87	26	79	57	62	96	90	94	12	100	91	100	90	83	94	99	Cn1cc(C2=C(c3ccc(Cl)cc3Cl)C(=O)NC2=O)c2ccccc21	kinase still bound, per cent of control [21]: 85%; kinase still bound, per cent of control [22]: 90% and 98%; kinase still bound, per cent of control [23]: 100%; kinase still bound, per cent of control [24]: 100%; kinase still bound, per cent of control [25]: 97%; kinase still bound, per cent of control [26]: 77%; kinase still bound, per cent of control [27]: 99%; kinase still bound, per cent of control [28]: 100%
99	90	71		40	100	87	73	93	100	75	100	87	100							COc1ccc(CNC(=O)Nc2ncc([N+](=O)[O-])s2)cc1	kinase still bound, per cent of control [22]: 85% and 100%
0	24	23	0.05	6.1	0.75	41	61	56	35	4.5	90	0.1	85	24	32	38	34	29	35	O=C1Nc2cc(Br)ccc2/C1=C1/Nc2ccccc2/C1=N\O	kinase still bound, per cent of control [21]: 17%; kinase still bound, per cent of control [23]: 39%; kinase still bound, per cent of control [24]: 44%; kinase still bound, per cent of control [25]: 53%; kinase still bound, per cent of control [26]: 13%; kinase still bound, per cent of control [27]: 38%; kinase still bound, per cent of control [28]: 80%
